From US20250034139A1, “AMINE COMPOUNDS HAVING ANTI-INFLAMMATORY, ANTIFUNGAL, ANTIPARASITIC, AND ANTICANCER ACTIVITY” (PHARMA CINQ, LLC, priority 2013, published 2025)

Assays:
THP-1 cells = test: Example D: LPS-triggered THP-1 cell death assay, acute/5-hour and chronic/48-hour; assay type: cell-based, Human; conditions: for Viable cell percent change, Chronic/48-hour, Mean: 10 ng/ml LPS, 0.1 μM test compound
Procedure: Compounds of the invention were tested at 0.1 μM versus AC in the LPS-triggered THP-1 cell death assay. Both acute/5-hour and chronic/48-hour phases of cell death were assessed. Compounds were screened in batches with DMSO as the negative control and AC as the high activity control.

[1] = tested on: Candida albicans strain 3153; test: Example H: Candida albicans growth inhibition (OD 600 nm); assay type: cell-based; conditions: Candida albicans, 3153, read-out: IC50 (uM) (50% inhibition of fungal growth), 24 hrs at 30° C., YPD, XLfit
Procedure: A single colony of Candida Albicans was grown in 50 ml YPD broth overnight (19 hr). The cells were washed with PBS and 3.5×10^4 CFU/ml of C. Albicans (144 μl/well) in YPD medium were plated in 96 well plates. Test compounds were then added to each well with concentration ranged from 5 to 40 μM as final concentrations. The plates were incubated at 30° C. overnight (24 hrs) and OD at 600 nm was read at the end of incubation as an index of yeast cell density.
Part-I: Preparation of Candida albicans Cells • 1. One day prior to the inoculum preparation, pick a single colony of Candida albicans strain 3153 (lot #61794) from the Sabouraud Dextrose Agar plate using the inoculum loop and inoculate into a 250 mL flask containing 50 ml of YPD growth medium • 2. Incubate at 30° C. with shaking at 150 rpm for at least 18 hours with loosened lid to allow air in and facilitate growth. • 3. Examine an aliquot of the culture under a microscope for Candida cell morphology and lack of bacterial contamination; >95% of Candida cells should be blastoconidia. • 4. Transfer 25 ml the overnight culture into a 50-ml plastic disposable centrifuge tube, and centrifuge at 1000×g for 20 min. • 5. Discard the supernatant and wash the pellet with 4 ml of PBS at three times. Vortex and centrifuge, 1000×g for 10 min. • 6. After the third wash, dispense the pellet with 2 ml PBS and vortex. • 7. Make three 1:10 serial dilutions in sterile PBS (10^−1, 10^−2, 10^−3) from the 2 ml cell suspension using 15 ml culture tubes. The final volume in each tube is 5 ml. • 8. […] Make a 1:4 dilution in YPD medium from the 50-fold dilution of 10^−3 cell suspension for testing compounds. • The final C. albicans cell concentration for the test: 3.5×10^4 CFU/ml • 10. Plated 144 ul/well of the above dilution of cell on 96-well plates. Part-II: C. Albicans Growth Inhibition Testing with Compounds • 1. From 10 mM DMSO stock solutions, make serial dilutions of compounds to 0.13, 0.25, 0.40, 0.55, 0.75 and 1.0 mM solutions • 2. Add 6 ul each of diluted compound solutions per well in duplicates. The final concentrations were 0, 5, 10, 16, 22, 30 and 40 micromolar. • 3. Incubated all plates at 30 C for overnight (˜24 hours). • 4. Read absorbance at OD600 for each plate. • 5. Calculate the % inhibition of each compound against the DMSO treated cell.

[2] = tested on: PC3 human prostate cancer cells; test: Example S: in vitro anticancer screen, PC-3 cells, Wst1; assay type: cell-based; conditions: Homo sapiens, PC-3, approximately 20 hours, Wst1, read-out: PC-3, percent of cancer cell survival relative to vehicle treated cells
Summary of the method: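 Values give percent survival relative to vehicle, read by Wst1 absorbance (450/630 nm) after 2 h dye incubation, in triplicate. Cells were seeded at 2×10^4/well and treated about 20 h with compound at 0.4, 0.5 or 2.5 μM, depending on compound.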

[3] = tested on: PC-3 prostate cancer cells; test: Example T: sensitisation of PC-3 cells to doxorubicin, oxaliplatin, paclitaxel or vincristine, Wst1; assay type: cell-based, human; conditions: PC-3 cells, 72 hours; for viability at 2.5 µM / viability at 0.4 µM / viability at 1.5 µM / viability at 0.5 µM: Homo sapiens, Wst1, vehicle = 100, read-out: No Chemo: percent cell survival; for viability at 2.5 µM: compound 2.5 μM alone; for Doxorubicin 3.5 μM: percent cell survival / Oxaliplatin 100 μM: percent cell survival / Paclitaxel 50 μM: percent cell survival / Vincristine 100 nM: percent cell survival: chemotherapy agent alone normalized to 100%; for viability at 0.4 µM: compound 0.4 μM alone; for viability at 1.5 µM: compound 1.5 μM alone; for viability at 0.5 µM: compound 0.5 μM alone
[4] = tested on: 4T1 murine breast cancer cells; test: Example S: in vitro anticancer screen, 4T1 cells, Wst1; assay type: cell-based, mouse; conditions: Mus musculus, 4T1, 18 h, 18 hr, Wst1; for viability at 1 µM: read-out: 4T1 1 μM, percent of cancer cell survival relative to vehicle treated cells; for viability at 5 µM: read-out: 4T1 5 μM, percent of cancer cell survival relative to vehicle treated cells
Summary of the method: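 Read-out is Wst1 absorbance (450 nm, reference 630 nm) after roughly 2 hr dye incubation, giving percent cell survival versus vehicle. Before that, compounds at 1 μM or 5 μM were applied for 18 hr to 4T1 cells plated at 1×10^4 per well.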

[5] = compound 2.5 μM + doxorubicin 3.5 μM
[6] = compound 2.5 μM + oxaliplatin 100 μM
[7] = compound 2.5 μM + paclitaxel 50 μM
[8] = compound 2.5 μM + vincristine 100 nM
[9] = compound 0.4 μM + doxorubicin 3.5 μM
[10] = compound 0.4 μM + oxaliplatin 100 μM
[11] = compound 0.4 μM + paclitaxel 50 μM
[12] = compound 0.4 μM + vincristine 100 nM
[13] = compound 1.5 μM + doxorubicin 3.5 μM
[14] = compound 1.5 μM + oxaliplatin 100 μM
[15] = compound 1.5 μM + paclitaxel 50 μM
[16] = compound 1.5 μM + vincristine 100 nM
[17] = compound 0.5 μM + doxorubicin 3.5 μM
[18] = compound 0.5 μM + oxaliplatin 100 μM
[19] = compound 0.5 μM + paclitaxel 50 μM
[20] = compound 0.5 μM + vincristine 100 nM

CCCCOCCCCCCCCn1cnc2cnc3ccccc3c21 [BQ, 1-(8-Butoxyoctyl)-1H-imidazo[4,5-c]quinoline]
Viable cell percent change, Chronic/48-hour, Mean (THP-1 cells): 13.70%
IC50 [1]: 51.7 µM
viability at 2.5 µM [2]: 21.4%
viability at 2.5 µM [3]: 21.4%
Doxorubicin 3.5 μM: percent cell survival [3, 5]: 48.5%
Oxaliplatin 100 μM: percent cell survival [3, 6]: 25.1%
Paclitaxel 50 μM: percent cell survival [3, 7]: 26.9%
Vincristine 100 nM: percent cell survival [3, 8]: 21.4%

CCCCCCOCCCCCCCCNc1ncnc2ccccc12 [EW, N-[8-(Hexyloxy)octyl]quinazolin-4-amine]
activity relative to AC in the LPS-triggered THP-1 cell death assay, in words (THP-1 cells; 0.1 μM, 5-hour and 48-hour time points): equivalent activity to AC at both the 5-hour and 48-hour time points
viability at 1 µM [4]: 21.2%
viability at 5 µM [4]: 18.9%
viability at 0.4 µM [2]: 14.1%
viability at 0.4 µM [3]: 14.1%
Doxorubicin 3.5 μM: percent cell survival [3, 9]: 20%
Oxaliplatin 100 μM: percent cell survival [3, 10]: 16.6%
Paclitaxel 50 μM: percent cell survival [3, 11]: 21.9%
Vincristine 100 nM: percent cell survival [3, 12]: 14.8%

CCCCCCCCCCCCOCCn1cnc2cnc3ccccc3c21 [FG, 1-[2-(Dodecyloxy)ethyl]-1H-imidazo[4,5-c]quinoline]
Viable cell percent change, Chronic/48-hour, Mean (THP-1 cells): 1.15%
viability at 1 µM [4]: 85.7%
viability at 5 µM [4]: 25.5%
viability at 1.5 µM [2]: 39.2%
viability at 1.5 µM [3]: 39.2%
Doxorubicin 3.5 μM: percent cell survival [3, 13]: 65.7%
Oxaliplatin 100 μM: percent cell survival [3, 14]: 85.5%
Paclitaxel 50 μM: percent cell survival [3, 15]: 47.2%
Vincristine 100 nM: percent cell survival [3, 16]: 41%

CCCCCCCCOCCCCCCn1cnc2cnc3ccccc3c21 [FI, 1-[6-(Octyloxy)hexyl]-1H-imidazo[4,5-c]quinoline]
Viable cell percent change, Chronic/48-hour, Mean (THP-1 cells): 12.70%
viability at 1 µM [4]: 26.5%
viability at 5 µM [4]: 26.7%
viability at 0.5 µM [2]: 35.2%
viability at 0.5 µM [3]: 35.2%
Doxorubicin 3.5 μM: percent cell survival [3, 17]: 79.8%
Oxaliplatin 100 μM: percent cell survival [3, 18]: 91.4%
Paclitaxel 50 μM: percent cell survival [3, 19]: 84%
Vincristine 100 nM: percent cell survival [3, 20]: 73.7%

CCCCCCOCCCCCCCCCn1cnc2cnc3ccccc3c21 [FJ, 1-[9-(Hexyloxy)nonyl]-1H-imidazo[4,5-c]quinoline]
Viable cell percent change, Chronic/48-hour, Mean (THP-1 cells): 27.44%
viability at 1 µM [4]: 38.1%
viability at 5 µM [4]: 24.5%
viability at 0.5 µM [2]: 38.6%
viability at 0.5 µM [3]: 38.6%
Doxorubicin 3.5 μM: percent cell survival [3, 17]: 75.1%
Oxaliplatin 100 μM: percent cell survival [3, 18]: 93%
Paclitaxel 50 μM: percent cell survival [3, 19]: 97.3%
Vincristine 100 nM: percent cell survival [3, 20]: 82.2%

CCCCOCCCCCCCCCCn1cnc2cnc3ccccc3c21 [FK, 1-(10-Butoxydecyl)-1H-imidazo[4,5-c]quinoline]
Viable cell percent change, Chronic/48-hour, Mean (THP-1 cells): 16.57%
viability at 1 µM [4]: 23.6%
viability at 5 µM [4]: 15.6%
viability at 0.5 µM [2]: 35.5%
viability at 0.5 µM [3]: 35.5%
Doxorubicin 3.5 μM: percent cell survival [3, 17]: 47.4%
Oxaliplatin 100 μM: percent cell survival [3, 18]: 62%
Paclitaxel 50 μM: percent cell survival [3, 19]: 18%
Vincristine 100 nM: percent cell survival [3, 20]: 39%

COCCCCCCCCNc1cc[n+](C)cc1.[I-] [FL, 4-(8-Methoxyoctylamino)-1-methylpyridinium iodide]
Viable cell percent change, Chronic/48-hour, Mean (THP-1 cells): 38.59%
viability at 1 µM [4]: 27.7%
viability at 5 µM [4]: 21.4%
viability at 0.4 µM [2]: 41.2%
viability at 0.4 µM [3]: 41.2%
Doxorubicin 3.5 μM: percent cell survival [3, 9]: 81.3%
Oxaliplatin 100 μM: percent cell survival [3, 10]: 87.9%
Paclitaxel 50 μM: percent cell survival [3, 11]: 92.8%
Vincristine 100 nM: percent cell survival [3, 12]: 69.7%

CCCCCCOCCCCCCCCNc1cccc2cnccc12 [FT, N-[8-(Hexyloxy)octyl]isoquinolin-5-amine]
Viable cell percent change, Chronic/48-hour, Mean (THP-1 cells): 3.59%
viability at 1 µM [4]: 113%
viability at 5 µM [4]: 27.6%
viability at 2.5 µM [2]: 41.1%
viability at 2.5 µM [3]: 41.1%
Doxorubicin 3.5 μM: percent cell survival [3, 5]: 74.4%
Oxaliplatin 100 μM: percent cell survival [3, 6]: 94.2%
Paclitaxel 50 μM: percent cell survival [3, 7]: 85.2%
Vincristine 100 nM: percent cell survival [3, 8]: 78.3%

CCCCCCCCCCOCCCCn1cnc2cnc3ccccc3c21 [GA, 1-[4-(Decyloxy)butyl]-1H-imidazo[4,5-c]quinoline]
Viable cell percent change, Chronic/48-hour, Mean (THP-1 cells): 16.51%
viability at 1 µM [4]: 97.1%
viability at 5 µM [4]: 35.5%
viability at 1.5 µM [2]: 41.3%
viability at 1.5 µM [3]: 41.3%
Doxorubicin 3.5 μM: percent cell survival [3, 13]: 82.2%
Oxaliplatin 100 μM: percent cell survival [3, 14]: 91.8%
Paclitaxel 50 μM: percent cell survival [3, 15]: 109.2%
Vincristine 100 nM: percent cell survival [3, 16]: 84.2%

CCCCCCOCCCCCCCCn1cnc2cnc3ccccc3c21 [GB, 1-[8-(Hexyloxy)octyl]-1H-imidazo[4,5-c]quinoline]
Viable cell percent change, Chronic/48-hour, Mean (THP-1 cells): 19.29%
viability at 1 µM [4]: 97%
viability at 5 µM [4]: 22.6%
viability at 1.5 µM [2]: 36.4%
viability at 1.5 µM [3]: 36.4%
Doxorubicin 3.5 μM: percent cell survival [3, 13]: 52.8%
Oxaliplatin 100 μM: percent cell survival [3, 14]: 76.2%
Paclitaxel 50 μM: percent cell survival [3, 15]: 24%
Vincristine 100 nM: percent cell survival [3, 16]: 38.8%

CCCCCCOCCCOCCCCCn1cnc2cnc3ccccc3c21 [GC, 1-{5-[3-(Hexyloxy)propoxy]pentyl}-1H-imidazo[4,5-c]quinoline]
Viable cell percent change, Chronic/48-hour, Mean (THP-1 cells): 19.30%
viability at 1 µM [4]: 84.8%
viability at 5 µM [4]: 21.1%
viability at 2.5 µM [2]: 19.8%
viability at 2.5 µM [3]: 19.8%
Doxorubicin 3.5 μM: percent cell survival [3, 5]: 59.5%
Oxaliplatin 100 μM: percent cell survival [3, 6]: 63.2%
Paclitaxel 50 μM: percent cell survival [3, 7]: 30.3%
Vincristine 100 nM: percent cell survival [3, 8]: 26.4%
